Several values for one entry are separate records, joined by “and”; a condition that tells them apart may be missing. Equal entries are not always repeated.
target: Neuronal acetylcholine receptor subunit alpha-4 (Homo sapiens, UniProt P43681)
Sequence (P43681 whole entry): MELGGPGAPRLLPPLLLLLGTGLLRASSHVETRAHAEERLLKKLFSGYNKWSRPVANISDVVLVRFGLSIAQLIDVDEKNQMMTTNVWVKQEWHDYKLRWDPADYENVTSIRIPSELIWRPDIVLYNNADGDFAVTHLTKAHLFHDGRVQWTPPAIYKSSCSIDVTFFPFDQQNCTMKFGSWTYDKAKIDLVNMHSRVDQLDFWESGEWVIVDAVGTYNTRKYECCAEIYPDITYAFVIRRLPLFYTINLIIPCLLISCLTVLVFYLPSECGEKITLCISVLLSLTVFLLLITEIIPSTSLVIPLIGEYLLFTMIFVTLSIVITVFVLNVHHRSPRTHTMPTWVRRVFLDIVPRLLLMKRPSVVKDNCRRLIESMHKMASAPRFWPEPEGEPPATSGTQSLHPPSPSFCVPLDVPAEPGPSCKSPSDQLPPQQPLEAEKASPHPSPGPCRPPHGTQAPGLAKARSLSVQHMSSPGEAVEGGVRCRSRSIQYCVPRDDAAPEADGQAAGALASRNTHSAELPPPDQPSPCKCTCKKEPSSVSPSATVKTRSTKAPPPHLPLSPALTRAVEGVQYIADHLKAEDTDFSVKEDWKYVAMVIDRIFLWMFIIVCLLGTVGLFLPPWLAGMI

Row | Structure (SMILES) | Ki
1 | Cc1cc([C@@H]2CCCN2C)on1 [ABT-418] | 1.7 nM
2 | CCN1C[C@]2(COC(=O)c3ccccc3-n3c(O)cc(C)c3O)CC[C@H](OC)[C@]34C5C[C@@H]6[C@@H](OC)C[C@@](O)(C5[C@H]6OC)[C@@](O)(C13)[C@@H](OC)C24 (stereo partly drawn) [[(1S,4S,5R,6S,8R,9R,13S,16S,18S)-11-ethyl-8,9-dihydroxy-4,6,16,18-tetramethoxy-11-azahexacyclo[7.7.2.1^{2,5}.0^{1,10}.0^{3,8}.0^{13,17}]nonadecan-13-yl]methyl 2-[(3S)-3-methyl-2,5-dioxopyrrolidin-1-yl]benzoate] | 6100 nM and 1600 nM
3 | O=c1cccc2n1C[C@H]1CNC[C@H]2C1 [(1S,9R)-7,11-diazatricyclo[7.3.1.0~2,7~]trideca-2,4-dien-6-one] | 17 nM and 3.3 nM
4 | CNC1(C)C2CCC(C2)C1(C)C (stereo unspecified) [Methyl-(2,3,3-trimethyl-bicyclo[2.2.1]hept-2-yl)-amine(Mecamylamine)] | > 10000 nM
5 | C[N+](C)(C)CCCCCC[N+](C)(C)C [Hexamethoniumdibromide] | > 10000 nM
6 | COc1cc2c3cc1Oc1cc(ccc1O)C[C@H]1c4c(cc(OC)c(O)c4Oc4ccc(cc4)C[C@@H]3N(C)CC2)CC[N+]1(C)C [CAS_57-94-3] | 1000 nM and > 10000 nM
